Data published in PMC5656517 (European journal of pharmaceutical sciences : official …, 2017).
Values after ≈ are worked out from the molar mass of the structure shown.

Legend:
CYP3A4 (midazolam) = CYP3A4 (midazolam) (Homo sapiens, UniProt P08684); test: KI and kinact determination in human liver microsomes; assay type: in vitro ADME
CYP3A4 [1] = biological target: T1, CYP3A4 (Homo sapiens, UniProt P08684); test: KI and kinact determination with recombinant CYP3A4; assay type: in vitro ADME
Target sequence in this assay (P08684 2-503 limits assumed): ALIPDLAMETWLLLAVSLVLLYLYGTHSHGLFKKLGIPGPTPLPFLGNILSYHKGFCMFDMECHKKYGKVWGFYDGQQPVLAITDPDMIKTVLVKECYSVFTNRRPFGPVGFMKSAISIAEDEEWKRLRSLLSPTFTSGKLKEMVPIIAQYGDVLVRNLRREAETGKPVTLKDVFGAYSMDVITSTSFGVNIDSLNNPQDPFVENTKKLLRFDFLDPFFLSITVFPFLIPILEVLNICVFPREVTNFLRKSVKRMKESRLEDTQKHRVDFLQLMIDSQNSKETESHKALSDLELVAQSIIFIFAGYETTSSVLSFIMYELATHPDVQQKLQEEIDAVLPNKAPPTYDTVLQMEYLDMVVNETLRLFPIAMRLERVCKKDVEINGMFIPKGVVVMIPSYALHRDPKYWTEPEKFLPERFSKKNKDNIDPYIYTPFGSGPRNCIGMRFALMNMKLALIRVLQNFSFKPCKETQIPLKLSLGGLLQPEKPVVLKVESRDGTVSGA

CYP3A4 [2] = biological target: T1, CYP3A4; test: Effect of washing to restore CYP3A4 activity, recombinant CYP3A4; assay type: in vitro ADME; settings: recombinant CYP3A4, 10 µM, 30 min preincubation, washed 3 times, midazolam
Target sequence in this assay (P08684 2-503 limits assumed): as above

CYP2C19 [3] = biological target: T2, CYP2C19 (Homo sapiens, UniProt P33261); settings: human liver microsomes, substrate (S)-mephenytoin, mean ± standard deviation
CYP1A2 = biological target: T3, CYP1A2 (Homo sapiens, UniProt P05177); test: Single concentration; settings: human liver microsomes
T3 sequence (P05177 1-516): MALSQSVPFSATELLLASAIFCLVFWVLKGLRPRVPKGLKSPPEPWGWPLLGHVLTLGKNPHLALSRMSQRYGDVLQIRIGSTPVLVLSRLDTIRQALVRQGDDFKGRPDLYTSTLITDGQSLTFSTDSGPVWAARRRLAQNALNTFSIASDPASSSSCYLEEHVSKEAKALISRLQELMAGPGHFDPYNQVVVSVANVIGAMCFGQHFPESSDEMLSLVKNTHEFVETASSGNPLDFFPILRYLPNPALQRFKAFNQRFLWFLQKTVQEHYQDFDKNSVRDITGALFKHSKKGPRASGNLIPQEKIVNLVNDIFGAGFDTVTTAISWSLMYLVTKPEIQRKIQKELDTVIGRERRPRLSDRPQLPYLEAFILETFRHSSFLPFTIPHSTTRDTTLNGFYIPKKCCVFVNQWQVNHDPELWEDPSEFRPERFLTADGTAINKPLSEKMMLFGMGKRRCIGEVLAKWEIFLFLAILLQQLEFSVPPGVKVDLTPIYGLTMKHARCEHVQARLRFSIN

CYP2C19 [4] = biological target: T2, CYP2C19; test: Single concentration; settings: human liver microsomes
CYP2B6 = biological target: T4, CYP2B6 (Homo sapiens, UniProt P20813); test: Cocktail assay IC50 determination in human liver microsomes; settings: substrate bupropion, mean ± standard deviation
T4 sequence (P20813 1-491): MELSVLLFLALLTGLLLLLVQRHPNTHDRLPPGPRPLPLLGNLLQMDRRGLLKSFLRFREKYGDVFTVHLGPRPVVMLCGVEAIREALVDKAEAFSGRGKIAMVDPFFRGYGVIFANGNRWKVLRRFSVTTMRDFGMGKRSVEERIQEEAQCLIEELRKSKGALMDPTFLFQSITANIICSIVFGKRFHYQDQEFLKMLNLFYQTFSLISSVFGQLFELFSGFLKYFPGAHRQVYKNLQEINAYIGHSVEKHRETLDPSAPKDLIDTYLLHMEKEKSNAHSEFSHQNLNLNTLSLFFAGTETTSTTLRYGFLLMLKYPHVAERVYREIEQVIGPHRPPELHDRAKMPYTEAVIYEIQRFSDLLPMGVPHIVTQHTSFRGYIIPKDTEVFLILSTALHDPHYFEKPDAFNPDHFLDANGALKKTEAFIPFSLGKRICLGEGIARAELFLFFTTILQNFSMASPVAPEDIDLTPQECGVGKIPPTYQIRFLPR

CYP3A4 [5] = biological target: T1, CYP3A4; test: Single point time-dependent inhibition screening assay in human liver microsomes
Target sequence in this assay (P08684 whole entry): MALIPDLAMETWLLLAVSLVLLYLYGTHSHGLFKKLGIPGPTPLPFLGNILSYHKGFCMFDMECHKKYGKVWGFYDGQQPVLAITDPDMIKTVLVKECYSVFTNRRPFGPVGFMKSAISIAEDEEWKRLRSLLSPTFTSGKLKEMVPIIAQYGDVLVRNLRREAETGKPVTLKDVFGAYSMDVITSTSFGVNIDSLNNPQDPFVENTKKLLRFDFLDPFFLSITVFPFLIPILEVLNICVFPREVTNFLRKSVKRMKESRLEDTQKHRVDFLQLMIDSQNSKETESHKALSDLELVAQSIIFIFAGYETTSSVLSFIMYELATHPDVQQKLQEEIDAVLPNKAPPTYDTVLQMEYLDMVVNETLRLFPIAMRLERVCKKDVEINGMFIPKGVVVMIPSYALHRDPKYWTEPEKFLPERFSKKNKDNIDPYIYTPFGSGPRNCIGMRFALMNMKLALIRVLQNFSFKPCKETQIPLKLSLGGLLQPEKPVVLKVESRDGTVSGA

CYP3A4 [6] = biological target: T1, CYP3A4; test: Cocktail assay IC50 determination in human liver microsomes; settings: mean ± standard deviation
Target sequence in this assay (P08684 whole entry): as above

Chain of CYP3A4 (midazolam) (P08684 whole entry): as above
T2 sequence (P33261 whole entry): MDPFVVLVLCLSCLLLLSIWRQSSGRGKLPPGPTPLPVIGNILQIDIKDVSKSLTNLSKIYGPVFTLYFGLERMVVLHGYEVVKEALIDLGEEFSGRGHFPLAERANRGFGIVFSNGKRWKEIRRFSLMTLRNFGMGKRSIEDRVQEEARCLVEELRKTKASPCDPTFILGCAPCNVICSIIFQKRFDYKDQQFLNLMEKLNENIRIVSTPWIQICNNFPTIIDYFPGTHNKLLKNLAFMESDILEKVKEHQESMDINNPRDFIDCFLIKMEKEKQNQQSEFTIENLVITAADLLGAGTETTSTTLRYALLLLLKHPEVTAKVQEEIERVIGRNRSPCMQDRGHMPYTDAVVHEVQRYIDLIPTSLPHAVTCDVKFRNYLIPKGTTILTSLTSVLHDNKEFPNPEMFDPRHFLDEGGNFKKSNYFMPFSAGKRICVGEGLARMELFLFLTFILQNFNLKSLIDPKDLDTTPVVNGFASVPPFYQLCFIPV

SMILES: C=CC(C)(C)c1cc(/C=C/C(=O)c2ccc(O)cc2)c(OC)cc1O [Licochalcone A, licochalcone A]
- Efficiency of inactivation (CYP3A4 (midazolam); human liver microsomes): 0.0033 µM⁻¹ min⁻¹
- kinact for inactivation of CYP3A4 (midazolam) (CYP3A4 (midazolam); human liver microsomes): 0.38 min⁻¹
- type of CYP3A4 inhibition, conclusion in words (CYP3A4 (midazolam); human liver microsomes and recombinant CYP3A4): mechanism based inhibitor
- KI (inactivation) (CYP3A4 (midazolam); read-out: KI for inactivation of CYP3A4 (midazolam), human liver microsomes): 116 µM
- KI (inactivation) (CYP3A4 [1]; read-out: KI for inactivation of CYP3A4 (midazolam), recombinant human CYP3A4): 2.22 µM
- Efficiency of inactivation (CYP3A4 [1]; recombinant CYP3A4): 0.021 µM⁻¹ min⁻¹
- kinact for inactivation of CYP3A4 (midazolam) (CYP3A4 [1]; recombinant human CYP3A4): 0.047 min⁻¹
- remaining enzyme activity after washing out the inhibitor (CYP3A4 [2]): 16.7%
- IC50, CYP2C19 (CYP2C19 [3]): 3.60 ± 0.79 µg/mL (≈ 10.6 µM)
- inhibition of CYP1A2 at 10 µM, in words (CYP1A2): weakly inhibited
- inhibition of CYP2C19 at 10 µM, in words (CYP2C19 [4]): moderate inhibitor
- IC50, CYP2B6 (CYP2B6): 17.96 ± 4.58 µg/mL (≈ 53.1 µM)
- time-dependent inhibition of CYP3A4 (midazolam), in words (CYP3A4 [5]): demonstrated time-dependent inhibition
- IC50, CYP3A4 (midazolam) (CYP3A4 [6]; substrate midazolam): 16.05 ± 1.91 µg/mL (≈ 47.4 µM)
- IC50, CYP3A4 (testosterone) (CYP3A4 [6]; substrate testosterone): 6.78 ± 1.27 µg/mL (≈ 20 µM)
